Assay results taken from article PMC9518264, “Design and synthesis of novel quinazolinone-based derivatives as EGFR inhibitors with antitumor activity” (Journal of Enzyme Inhibition and Medicinal Chemistry, 2022).

Legend:
[1] = tested on: NCI-H522; experiment: cells; assay type: cell-based; conditions: for inhibition at 10 µM: NCI-H522, read-out: growth inhibition % (GI%)
[2] = tested on: HL-60(TB); experiment: cells; assay type: cell-based; conditions: for inhibition at 10 µM: HL-60, read-out: growth inhibition % (GI%)
[3] = tested on: HCC-2998; experiment: cells; assay type: cell-based; conditions: for inhibition at 10 µM: HCC 2998, read-out: growth inhibition % (GI%)
[4] = tested on: NCI-H226; experiment: cells; assay type: cell-based; conditions: for inhibition at 10 µM: NCI-H226, read-out: growth inhibition % (GI%)
[5] = tested on: HCT-15; experiment: cells; assay type: cell-based; conditions: for inhibition at 10 µM: HCT-15, read-out: growth inhibition % (GI%)
[6] = tested on: SNB-75; experiment: cells; assay type: cell-based; conditions: for inhibition at 10 µM: SNB-75, read-out: growth inhibition % (GI%)
[7] = tested on: TK-10; experiment: cells; assay type: cell-based; conditions: for inhibition at 10 µM: TK-10, read-out: growth inhibition % (GI%)
[8] = tested on: RXF 393; experiment: cells; assay type: cell-based; conditions: for inhibition at 10 µM: RXF 393, read-out: growth inhibition % (GI%)
[9] = tested on: OVCAR-3; experiment: NCI 60 cell line antiproliferative screening (SRB), Ovarian cancer; conditions: for inhibition at 10 µM: OVCAR-3, read-out: growth inhibition % (GI%)
[10] = tested on: UACC-257; experiment: cells; assay type: cell-based; conditions: for inhibition at 10 µM: UACC-257, read-out: growth inhibition % (GI%)
[11] = target: EGFR (Homo sapiens, UniProt P00533); experiment: In vitro EGFR kinase inhibitory assay (Kinase-Glo Max luminescence kit); assay type: biochemical
EGFR, sequence (P00533 669-1210): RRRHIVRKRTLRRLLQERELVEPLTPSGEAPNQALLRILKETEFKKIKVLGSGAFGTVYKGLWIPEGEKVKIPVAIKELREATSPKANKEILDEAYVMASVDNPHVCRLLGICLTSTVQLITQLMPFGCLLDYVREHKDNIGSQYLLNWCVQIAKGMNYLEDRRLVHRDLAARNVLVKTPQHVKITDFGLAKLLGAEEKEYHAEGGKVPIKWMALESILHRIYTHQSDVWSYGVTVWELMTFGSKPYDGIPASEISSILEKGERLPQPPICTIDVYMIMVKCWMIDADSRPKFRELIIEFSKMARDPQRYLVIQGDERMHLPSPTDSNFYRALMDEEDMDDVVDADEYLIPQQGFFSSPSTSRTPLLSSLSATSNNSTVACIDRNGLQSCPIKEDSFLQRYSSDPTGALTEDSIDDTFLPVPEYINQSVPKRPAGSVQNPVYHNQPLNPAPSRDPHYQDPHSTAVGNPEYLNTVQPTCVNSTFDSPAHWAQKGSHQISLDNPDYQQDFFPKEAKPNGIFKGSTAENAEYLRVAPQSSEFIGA

[12] = tested on: M14; experiment: cells; assay type: cell-based; conditions: for inhibition at 10 µM: M14, read-out: growth inhibition % (GI%)
[13] = tested on: OVCAR-4; experiment: cells; assay type: cell-based; conditions: for inhibition at 10 µM: OVCAR-4, read-out: growth inhibition % (GI%)
[14] = tested on: CAKI-1; experiment: cells; assay type: cell-based; conditions: for inhibition at 10 µM: CAKI-1, read-out: growth inhibition % (GI%)
[15] = tested on: HS 578T cells; experiment: Annexin V/PI dual staining apoptosis assay; assay type: cell-based, human
[16] = tested on: HS 578T cells; experiment: Cell cycle analysis by DNA flow cytometry (propidium iodide)
Description: Flow cytometry was used to analyse the cell cycle using ab139418 propidium iodide flow cytometry kit/BD (Abcam, Cambridge, UK), as directed by the manufacturer guidelines.
The cells were washed twice with ice-cold phosphate buffer saline (PBS) and collected by centrifugation.
(v/v) ethanol, washed with PBS, and re-suspended with 0.1 mg/mL RNase to digest cellular RNA and thus minimize stained RNA in the background. The cells were next stained with PI, a fluorescent molecule that may bind to nucleic acid, at a concentration of 40 mg/mL. In cells, PI attaches to DNA in proportion to its amount. Because the DNA content of cells at different stages of the cell cycle differs, the fluorescence intensity can be used to assess the stage of cell growth. FacsCalibur (BD Biosciences, USA) was used to estimate cell fluorescence, which was then examined using Cell-Quest software (Becton Dickinson).

[17] = tested on: caspase-3; experiment: Caspase-3 activation (ELISA) in breast HS 578T cancer cell line; assay type: cell-based, human
Description: Apoptosis is triggered by the activation of caspases, particularly caspase-3, which is an […] caspase responsible for apoptosis. Therefore, the induction of apoptosis by compound 6d was examined by the evaluation of caspase-3 activation in breast HS 578T cancer cell line. The effect of erlotinib as well as untreated cell line was used as positive and negative control, respectively. […] . […]
incubated for 15 minutes in the dark at room temperature. FacsCalibur was used to assess cell fluorescence after incubation (BD Biosciences, USA). The results were represented using dot-plot graphs.
1.1.5. Caspase-3 enzyme assay
The level of the apoptotic marker caspase-3 was measured using Invitrogen ELISA Kit Catalog # KHO1091. The procedure of the used kit was performed according to the manufacturer’s instructions. Let all components to reach room temperature before use. Gently combine all liquid reagents prior to use. Add 100 μL of the standard diluent buffer to the zero standard wells. Add 100 μL of standards and controls or diluted samples to the appropriate microtiter wells. Incubate for 2 h at room temperature. Pipette 100 μL of Caspase-3 (Active) detection antibody solution into each well. […] Read the absorbance of each well at 450 nm. Read the plate within 2 h after adding the stop solution. […] Read the concentrations for unknown samples and controls from the standard curve.

[18] = 24 h at 2.17 µM, vs untreated control

## O=C(CSc1nc2ccccc2c(=O)n1-c1ccccc1)NN=Cc1ccc(Oc2ccc(Br)cc2)cc1 [6b, N'-(4–(4-bromophenoxy)benzylidene)-2-((4-oxo-3-phenyl-3,4-dihydroquinazolin-2-yl)thio) acetohydrazide]
[1]; Homo sapiens
  inhibition at 10 µM: 51.5%
[2]; Homo sapiens
  inhibition at 10 µM: < 15%
[3]; Homo sapiens
  inhibition at 10 µM: < 15%
[4]; Homo sapiens
  inhibition at 10 µM: 22.4%
[5]; Homo sapiens
  inhibition at 10 µM: 36.3%
[6]; Homo sapiens
  inhibition at 10 µM: 42.2%
[7]; Homo sapiens
  inhibition at 10 µM: < 15%
[8]; Homo sapiens
  inhibition at 10 µM: 37.8%
[9]; Homo sapiens
  inhibition at 10 µM: < 15%
[10]; Homo sapiens
  inhibition at 10 µM: < 15%
[11]
  IC50: 0.487 ± 0.03 µM
[12]; Homo sapiens
  inhibition at 10 µM: 43.7%
[13]; Homo sapiens
  inhibition at 10 µM: 18.3%
[14]; Homo sapiens
  inhibition at 10 µM: 29.2%

## O=C(CSc1nc2ccccc2c(=O)n1-c1ccc(Cl)cc1)NN=Cc1ccc(Oc2ccc(Cl)cc2)cc1 [6d, N'-(4–(4-chlorophenoxy)benzylidene)-2-((3–(4-chlorophenyl)-4-oxo-3,4-dihydroquinazolin-2-yl)thio)acetohydrazide]
[1]; Homo sapiens, NCI-H522
  GI50: 2.34 µM
[1]; Homo sapiens
  inhibition at 10 µM: 79.3%
[1]; Homo sapiens, NCI-H522, 5 doses, read-out: LC50 (the source's name)
  CC50: 42.6 µM
[1]; NCI-H522, 5 doses
  TGI: 8.31 µM
[2]; HL-60(TB), 5 doses
  TGI: 37.0 µM
[2]; Homo sapiens, HL-60
  GI50: 16 µM
[2]; Homo sapiens
  inhibition at 10 µM: < 15%
[2]; Homo sapiens, HL-60(TB), 5 doses, read-out: LC50 (the source's name)
  CC50: 85.7 µM
[3]; HCC-2998, 5 doses
  TGI: 3.81 µM
[3]; Homo sapiens, HCC 2998
  GI50: 1.92 µM
[3]; Homo sapiens
  inhibition at 10 µM: 79.7%
[3]; Homo sapiens, HCC-2998, 5 doses
  LC50 (lethal concentration 50%): 7.57 µM
[4]; Homo sapiens, NCI-H226
  GI50: 2.46 µM
[4]; Homo sapiens
  inhibition at 10 µM: 24.4%
[4]; Homo sapiens, NCI-H226, 5 doses
  LC50 (NCI-60 50% lethal concentration): 33.2 µM
[4]; NCI-H226, 5 doses
  TGI: 6.59 µM
[5]; HCT-15, 5 doses
  TGI: 7.48 µM
[5]; Homo sapiens, HCT-15
  GI50: 2.41 µM
[5]; Homo sapiens
  inhibition at 10 µM: 89.6%
[5]; Homo sapiens, HCT-15, 5 doses
  LC50 (concentration causing 50% net cell kill): 28.5 µM
[6]; Homo sapiens, SNB-75
  GI50: 3.99 µM
[6]; Homo sapiens
  inhibition at 10 µM: 42.1%
[6]; Homo sapiens, SNB-75, 5 doses, read-out: LC50 (the source's name)
  CC50: > 100 µM
[6]; SNB-75, 5 doses
  TGI: 29.2 µM
[7]; Homo sapiens, TK-10
  GI50: 5.97 µM
[7]; Homo sapiens
  inhibition at 10 µM: 60.3%
[7]; Homo sapiens, TK-10, 5 doses, read-out: LC50 (the source's name)
  CC50: > 100 µM
[7]; TK-10, 5 doses
  TGI: 40.2 µM
[15]
  increase in total apoptosis compared to the control: 16.74 fold
[15]; IC50 concentration, 24 h
  Apoptosis Early: 19.24%
  Apoptosis Late: 13.45%
  Apoptosis Total: 39.02%
  Necrosis: 6.33%
[8]; Homo sapiens, RXF 393
  GI50: 1.7 µM
[8]; Homo sapiens
  inhibition at 10 µM: > 100%
[8]; Homo sapiens, RXF 393, 5 doses, read-out: LC50 (the source's name)
  CC50: 5.81 µM
[8]; RXF 393, 5 doses
  TGI: 3.14 µM
[9]; Homo sapiens, OVCAR-3
  GI50: 2.75 µM
[9]; Homo sapiens, OVCAR-3, read-out: LC50
  CC50: 38.9 µM
[9]; Homo sapiens
  inhibition at 10 µM: < 15%
[9]; OVCAR-3, 5 doses
  TGI: 9.55 µM
[10]; Homo sapiens, UACC-257
  GI50: 4.62 µM
[10]; Homo sapiens
  inhibition at 10 µM: 41%
[10]; Homo sapiens, UACC-257, 5 doses, read-out: LC50 (the source's name)
  CC50: > 100 µM
[10]; UACC-257, 5 doses
  TGI: 22.5 µM
[11]
  IC50: 0.069 ± 0.004 µM
[12]; Homo sapiens, M14
  GI50: 1.58 µM
[12]; Homo sapiens
  inhibition at 10 µM: > 100%
[12]; Homo sapiens, M14, 5 doses, read-out: LC50 (the source's name)
  CC50: 7.58 µM
[12]; M14, 5 doses
  TGI: 3.47 µM
[16]
  phase of cell cycle arrest: G1/S phase
[16]; 24 h at 2.17 µM, vs control
  increase of cell population in the pre-G1 phase: 16.74 fold
[16]; [18]
  decrease in the cell population at the G2/M phase: 52%
  increase of proportion of cells in G0-G1 phase: 1.12 fold
  increase of proportion of cells in S phase: 1.12 fold
[17]
  increase of caspase-3 level compared to negative control: 10.75 fold
[13]; Homo sapiens, OVCAR-4
  GI50: 1.89 µM
[13]; Homo sapiens
  inhibition at 10 µM: 98.3%
[13]; Homo sapiens, OVCAR-4, 5 doses, read-out: LC50 (the source's name)
  CC50: 17.5 µM
[13]; OVCAR-4, 5 doses
  TGI: 4.57 µM
[14]; CAKI-1, 5 doses
  TGI: 12.0 µM
[14]; Homo sapiens, CAKI-1
  GI50: 3.06 µM
[14]; Homo sapiens
  inhibition at 10 µM: 67%
[14]; Homo sapiens, CAKI-1, 5 doses, read-out: LC50 (the source's name)
  CC50: 35.4 µM
